Source: ChEMBL document CHEMBL2401727, “Searching for new antiarrhythmic agents: evaluation of meta-hydroxymexiletine enantiomers” (Eur J Med Chem, 2013)

Key:
Ileum [1] = experiment: Relaxtant activity in guinea pig K+-depolarized ileum longitudinal smooth muscle assessed as inhibition of calcium-induced contraction at 10^-4 M relative to control; assay type: functional; settings: Cavia porcellus
Left cardiac atrium [2] = experiment: Negative inotropic activity in guinea pig left atria assessed as decrease of 1 Hz current-induced developed tension at 10^-6 M relative to control; assay type: functional, Cavia porcellus; set-up: scale not given: the % may be the effect or the level left
Heart [3] = experiment: Antiarrhythmic activity in guinea pig left atria assessed as increase of threshold of 1 Hz alternating current-induced arrhythmia at 1 Hz measured every 30 mins; assay type: functional, tissue-based; settings: Cavia porcellus, 0.5 h
Aorta [4] = experiment: Vasorelaxant activity in guinea pig K+-depolarized aortic strip assessed as inhibition of calcium-induced contraction at 5 X 10^-5 M relative to control; assay type: functional; settings: Cavia porcellus
Heart [5] = experiment: Antiarrhythmic activity in guinea pig left atria assessed as increase of threshold of 1 Hz alternating current-induced arrhythmia at 10^-6 M measured every 30 mins relative to control; assay type: functional, Cavia porcellus
Left cardiac atrium [6] = experiment: Negative inotropic activity in guinea pig left atria assessed as decrease of 1 Hz current-induced developed tension; assay type: functional; settings: Cavia porcellus
[7] = Negative chronotropic activity in guinea pig spontaneously beating right atria assessed as decrease in atrial rate at 10^-5 M relative to control; assay type: functional, Cavia porcellus, Cardiac atrium; set-up: scale not given: the % may be the effect or the level left
Heart [8] = experiment: Antiarrhythmic activity in guinea pig left atria assessed as increase of threshold of 1 Hz alternating current-induced arrhythmia at 10^-4 M measured every 30 mins relative to control; assay type: functional, Cavia porcellus
Aorta [9] = experiment: Vasorelaxant activity in guinea pig K+-depolarized aortic strip assessed as inhibition of calcium-induced contraction at 10^-4 M relative to control; assay type: functional; settings: Cavia porcellus
Ileum [10] = experiment: Relaxtant activity in guinea pig K+-depolarized ileum longitudinal smooth muscle assessed as inhibition of calcium-induced contraction; assay type: functional, tissue-based; settings: Cavia porcellus
Left cardiac atrium [11] = experiment: Negative inotropic activity in guinea pig left atria assessed as decrease of 1 Hz current-induced developed tension at 5 X 10^-5 M relative to control; assay type: functional, Cavia porcellus; set-up: scale not given: the % may be the effect or the level left
[12] = Elimination half life in human; settings: in vivo

EC50 (Left cardiac atrium [6]) [µM] | IC50 (Ileum [10]) [µM] | half-life [12] [h] | Compound | inhibition at 100 µM (Ileum [1]) [%] | Activity (Left cardiac atrium [2]) [%] | EC50 (Heart [3]) [µM] | inhibition at 50 µM (Aorta [4]) [%] | %max (Heart [5]) [%] | Activity [7] [%] | %max (Heart [8]) [%] | inhibition at 100 µM (Aorta [9]) [%] | Activity (Left cardiac atrium [11]) [%]
0.025 | – | – | Cc1ccc(O)c(C)c1OC[C@@H](C)N | 47 | 89 | 0.56 | 1 | 66 | 34 | – | – | –
0.12 | 13.6 | – | Cc1ccc(O)c(C)c1OC[C@H](C)N | 75 | – | – | – | – | 16 | 13 | 4 | 93
– | 25.8 | – | Cc1ccc(O)c(C)c1OCC(C)N (racemic) | 51 | – | – | – | – | – | – | – | –
– | 8.52 | 10 | Cc1cccc(C)c1OCC(C)N (centres undefined) [MEXILETINE] | 81 | – | – | – | – | – | – | – | –
